Measured values: paper PMC11211329, “Phage-encoded bismuth bicycles enable instant access to targeted bioactive peptides” (Communications Chemistry, 2024)
Several values for one entry are separate records, joined by “and”; a condition that tells them apart may be missing. Identical values can stand only once. Like-named read-outs stand apart in the source and are kept apart here.

Target: T1, streptavidin (Streptomyces avidinii, UniProt P22629)
T1 construct: purchased New England Biolabs
Experiment: biochemical
Format: binding
Settings: for more active than linear counterpart: ratio of KD, bicycle vs linear peptide
Experimental: SPR measurements were performed with 20 mM HEPES–KOH pH 7.4, 150 mM NaCl, 0.5 mM TCEP, 0.05% (v/v) polysorbate 20 as running buffer. For each experiment, 100–150 μg streptavidin in 10 mM sodium acetate pH 3.9 buffer was freshly immobilised on a sensor chip flow-cell using EDC/NHS chemistry at 25 °C in absence of TCEP. All binding experiments were conducted at 20 °C in single-cycle kinetics mode (Fig. 4, Supplementary Figs. 17, 18, Supplementary Data 2).
SPR experiments were performed on a Biacore 8K (Cytiva, USA) using a CM5 chip (Cytiva, 29104988, USA), onto which streptavidin (New England Biolabs, USA) was freshly immobilised using an amine coupling kit (Cytiva, USA) for each individual experiment. The instrument was operated using Biacore Insight 5 software (Cytiva, USA). The data were plotted and analysed in GraphPad Prism 10 (Dotmatics, USA) using the non-linear fit ‘one site – specific binding’ (Supplementary Equation 2). KD values of duplicate measurements are represented as the mean value ± standard deviation.
Supplementary Equation 2.
X = analyte concentration [µM]
RUmax = maximum response [RU]
KD = dissociation constant [µM]

T1 sequence (P22629 25-183): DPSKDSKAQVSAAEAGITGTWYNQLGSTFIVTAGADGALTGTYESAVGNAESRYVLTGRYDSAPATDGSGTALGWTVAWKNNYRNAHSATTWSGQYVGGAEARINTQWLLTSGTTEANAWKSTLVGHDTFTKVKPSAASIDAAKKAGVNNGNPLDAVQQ

Row | Compound | affinity towards streptavidin (in words) (SPR) | Response (SPR, 0.390625 μM peptide) | Response (SPR, 0.78125 μM peptide) | Response (SPR, 1.5625 μM peptide) | Response (SPR, 3.125 μM peptide) | Response (SPR, 6.25 μM peptide) | Response (SPR, 12.5 μM peptide) | Response (SPR, 25 μM peptide) | Response (SPR, 50 μM peptide) | Response (SPR, 100 μM peptide) | Kd (SPR, 20 °C, single-cycle kinetics, 1b, 2b, 3a, 4a n = 2 (mean ± SD), 2, 3, 3b, 4b n = 1) | more active than linear counterpart | Kd | Response (SPR, 200 μM peptide)
1 | CSCC[C@@H]1NC(=O)[C@@H]2CCCN2C(=O)[C@H](Cc2c[nH]cn2)NC(=O)[C@H](CO)NC(=O)[C@@H](NC(=O)[C@H](C)N)C[S][Bi]2[S]C[C@@H](C(N)=O)NC(=O)[C@@H]3CCCN3C(=O)[C@H](Cc3ccccc3)NC(=O)CNC(=O)[C@H](CCC(=O)O)NC(=O)[C@H](C[S]2)NC1=O [1b] | micromolar affinity | 6.1348 RU and 7.3042 RU | 7.9335 RU and 9.6048 RU | 11.7844 RU and 13.9912 RU | 18.5476 RU and 21.5419 RU | 29.9992 RU and 34.3112 RU | 48.2716 RU and 55.717 RU | 75.0467 RU and 86.4584 RU | 95.3416 RU and 109.542 RU | 110.889 RU and 126.3 RU | – | – | – | –
2 | C[C@H](N)C(=O)N[C@H]1C[S][Bi]2[S]C[C@@H](C(N)=O)NC(=O)[C@H](C)NC(=O)[C@H](C)NC(=O)[C@H](C)NC(=O)[C@H](CCC(=O)O)NC(=O)[C@H](C[S]2)NC(=O)[C@H](CCC(N)=O)NC(=O)[C@@H]2CCCN2C(=O)[C@H](Cc2c[nH]cn2)NC(=O)[C@@H]2CCCN2C1=O [2b] | micromolar affinity | 13.0345 RU and 9.7931 RU | 13.307 RU and 10.0327 RU | 13.7466 RU and 10.2315 RU | 15.583 RU and 11.4763 RU | 24.2151 RU and 19.0135 RU | 41.2334 RU and 33.5268 RU | 50.6436 RU and 38.7895 RU | 52.9652 RU and 37.872 RU | 63.2365 RU and 47.0629 RU | 7.4 µM | approximately 200 times | – | –
3 | C[C@H](N)C(=O)N[C@H]1CS[As]2SC[C@@H](C(N)=O)NC(=O)[C@H](C)NC(=O)[C@@H]3CCCN3C(=O)[C@H](CCC(=O)O)NC(=O)[C@H]([C@@H](C)O)NC(=O)[C@H](CS2)NC(=O)[C@H](CC(N)=O)NC(=O)[C@H](CCC(N)=O)NC(=O)[C@@H]2CCCN2C(=O)[C@H](Cc2c[nH]cn2)NC1=O [3a] | micromolar affinity | 3.2004 RU and 3.5032 RU | 4.9583 RU and 6.3102 RU | 9.0442 RU and 11.2377 RU | 17.2093 RU and 20.7499 RU | 31.5997 RU and 35.2522 RU | 49.5222 RU and 52.7774 RU | 65.4485 RU and 68.0889 RU | 75.5589 RU and 77.8751 RU | – | – | approximately 80 times | 11.7 µM | –
4 | C[C@H](N)C(=O)N[C@H]1C[S][Bi]2[S]C[C@@H](C(N)=O)NC(=O)[C@H](C)NC(=O)[C@@H]3CCCN3C(=O)[C@H](CCC(=O)O)NC(=O)[C@H]([C@@H](C)O)NC(=O)[C@H](C[S]2)NC(=O)[C@H](CC(N)=O)NC(=O)[C@H](CCC(N)=O)NC(=O)[C@@H]2CCCN2C(=O)[C@H](Cc2c[nH]cn2)NC1=O [3b] | two-digit micromolar dissociation constants | – | 7.812 RU | 10.9116 RU | 21.8994 RU | 58.4112 RU | 130.364 RU | 206.319 RU | 242.538 RU | 254.246 RU | – | – | – | 258.218 RU
5 | CC(C)[C@@H]1NC(=O)[C@H](CCC(N)=O)NC(=O)[C@@H]2CCCN2C(=O)[C@H](Cc2c[nH]cn2)NC(=O)[C@@H](NC(=O)[C@H](C)N)CS[As]2SC[C@@H](C(N)=O)NC(=O)[C@H](CCC(=O)O)NC(=O)[C@H]([C@@H](C)O)NC(=O)[C@@H]3CCCN3C(=O)[C@H](CO)NC(=O)[C@H](CS2)NC1=O [4a] | micromolar affinity | 3.3313 RU and 3.9342 RU | 3.4046 RU and 4.4109 RU | 4.0632 RU and 5.3459 RU | 6.3333 RU and 7.9821 RU | 11.621 RU and 13.3151 RU | 22.2246 RU and 23.8712 RU | 39.0098 RU and 40.7076 RU | 57.9196 RU and 59.6228 RU | 73.3509 RU and 75.0552 RU | – | – | 42.8 ± 3.5 µM | –
